# Reference: BindingDB's records for PubMed 11082457 (Centre De Recherches De Croissy, 2000)
# Assays:
# [1] = molecular target: T1, Amine oxidase [flavin-containing] A (Rattus norvegicus, UniProt P21396)
# T1 sequence (P21396 whole entry): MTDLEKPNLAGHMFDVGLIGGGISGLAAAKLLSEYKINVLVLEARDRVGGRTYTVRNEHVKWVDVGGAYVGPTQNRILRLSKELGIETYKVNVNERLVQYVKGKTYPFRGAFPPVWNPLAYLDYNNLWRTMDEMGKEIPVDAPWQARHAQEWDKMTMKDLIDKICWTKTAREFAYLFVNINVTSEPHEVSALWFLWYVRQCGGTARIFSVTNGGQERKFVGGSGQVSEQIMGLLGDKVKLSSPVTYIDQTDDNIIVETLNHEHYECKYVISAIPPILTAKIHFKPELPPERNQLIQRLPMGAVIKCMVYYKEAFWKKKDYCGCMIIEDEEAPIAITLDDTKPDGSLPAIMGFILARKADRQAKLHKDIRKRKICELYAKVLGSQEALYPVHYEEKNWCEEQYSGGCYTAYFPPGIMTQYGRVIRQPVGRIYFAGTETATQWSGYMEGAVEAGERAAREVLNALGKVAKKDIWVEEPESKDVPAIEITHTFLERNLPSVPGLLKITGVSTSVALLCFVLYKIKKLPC
# [2] = molecular target: T2, Alpha-1A adrenergic receptor (Homo sapiens, UniProt P35348)
# T2 sequence (P35348 whole entry): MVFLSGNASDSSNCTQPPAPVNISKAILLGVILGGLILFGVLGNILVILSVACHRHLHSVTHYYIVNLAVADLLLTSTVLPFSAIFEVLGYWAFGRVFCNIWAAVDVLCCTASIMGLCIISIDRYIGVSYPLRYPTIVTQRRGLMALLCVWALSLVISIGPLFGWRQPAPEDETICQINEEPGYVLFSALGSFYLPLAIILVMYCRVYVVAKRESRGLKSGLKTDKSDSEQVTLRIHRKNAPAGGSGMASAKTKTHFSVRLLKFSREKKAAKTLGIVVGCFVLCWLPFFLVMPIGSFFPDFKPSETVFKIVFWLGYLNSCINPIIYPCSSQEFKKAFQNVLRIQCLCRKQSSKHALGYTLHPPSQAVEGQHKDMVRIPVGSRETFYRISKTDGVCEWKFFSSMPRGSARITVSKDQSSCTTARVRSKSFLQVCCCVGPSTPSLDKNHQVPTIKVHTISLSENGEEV
# [3] = molecular target: T3, Alpha-1D adrenergic receptor (Homo sapiens, UniProt P25100)
# T3 sequence (P25100 whole entry): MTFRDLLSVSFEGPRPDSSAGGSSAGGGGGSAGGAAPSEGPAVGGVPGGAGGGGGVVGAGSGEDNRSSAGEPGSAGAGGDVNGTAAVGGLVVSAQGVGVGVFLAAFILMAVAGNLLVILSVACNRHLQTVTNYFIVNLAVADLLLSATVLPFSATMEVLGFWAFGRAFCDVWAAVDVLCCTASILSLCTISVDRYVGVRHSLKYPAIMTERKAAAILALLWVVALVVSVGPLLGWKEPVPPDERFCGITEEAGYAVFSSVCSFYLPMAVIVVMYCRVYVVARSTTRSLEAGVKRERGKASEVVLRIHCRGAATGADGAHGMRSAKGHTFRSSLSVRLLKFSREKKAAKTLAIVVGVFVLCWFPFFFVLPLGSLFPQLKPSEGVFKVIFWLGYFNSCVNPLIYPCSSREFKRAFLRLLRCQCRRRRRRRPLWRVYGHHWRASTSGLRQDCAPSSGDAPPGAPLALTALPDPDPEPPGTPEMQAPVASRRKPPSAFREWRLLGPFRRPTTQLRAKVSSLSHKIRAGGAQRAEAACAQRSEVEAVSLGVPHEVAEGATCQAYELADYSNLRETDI
SMILES,Ki [1] [nM],Ki [2] [nM],Ki [3] [nM]
NC1=NC2(CCc3ccccc3C2)CO1 (stereo unspecified) [S18616],1000,3.98,25.1
Cc1cccc([C@@H](C)c2cnc[nH]2)c1C,1000,200,79.4
